Laboratory results as given in patent publication US11795152B2, “Crystal form of tafamidis and preparation method therefor and use thereof” (CRYSTAL PHARMACEUTICAL (SUZHOU) CO., LTD., priority 2019, dated 2023).
“Also recorded” adds a separate entry of the source.

Key:
Format in all cases: physicochemical
[1] = Dissolution profile of tablets in pH6.8 PBS+1% Tween 80; settings: tablet 61 mg, paddle 75 rpm, 37° C.
Experimental: (§1) The cumulative dissolution was measured at different time in pH6.8 PBS+1% Tween 80 and pH6.8 PBS+3% Tween 80. The dissolution results are presented in Table 24 (FIG. 23) and Table 25 (FIG. 24).
The cumulative dissolution was measured at different time in pH6.8 PBS+1% Tween 80.

[2] = Hygroscopicity by dynamic vapor sorption (DVS); settings: 80% RH; for Weight gain: 25° C., DVS
Experimental: Dynamic Vapor Sorption (DVS) is measured via a SMS (Surface Measurement Systems Ltd.) intrinsic DVS instrument. Its control software is DVS-Intrinsic control software. Typical parameters for DVS tests are as follows:
Gas and flow rate: N2, 200 mL/min
RH range: 0% RH to 95% RH
The weight gains at each relative humidity were recorded in a cycle of 0-95%-0 RH. The XRPD patterns were collected before and after the DVS test and depicted in FIG. 11.
Description and definition of hygroscopicity (general notice 9103 drug hygroscopicity test guidelines in 2015 edition of Chinese Pharmacopoeia, test at 25° C.+/−1° C., 80% RH. The definition of hygroscopicity in the 9th European Pharmacopoeia 5.11 is in consistent with the Chinese Pharmacopoeia.). • deliquescent: sufficient water is absorbed to form a solution. • very hygroscopic: increase in mass is equal to or greater than 15 percent. • hygroscopic: increase in mass is less than 15 percent and equal to or greater than 2 percent. • slightly hygroscopic: increase in mass is less than 2 percent and equal to or greater than 0.2 percent. • non hygroscopic or almost non hygroscopic: Increase in mass is less than 0.2%.
The weight gains at each relative humidity were recorded in a cycle of 0-95%-0RH. The XRPD patterns were collected before and after the DVS test and depicted in FIG. 22. […] Form CSVI is slightly hygroscopic.
The weight gains at each relative humidity were recorded in a cycle of 0-95%-0RH. The XRPD patterns were collected before and after the DVS test and depicted in FIG. 31.

[3] = Stability of Form CSVII drug product on storage; settings: 30° C./60% RH
[4] = Adhesiveness (material sticking to the punch); settings: 30 mg, φ8 mm round tooling, 10 KN held for 30 s
Experimental: The punch was weighed and amount of material sticking to the punch was calculated. The compression was repeated twice and the cumulative amount, maximum amount and average amount of material sticking to the punch during the compression were recorded.

[5] = Compressibility (manual tablet press, tensile strength); settings: 80 mg, φ6 mm round tooling, 10 KN; for Hardness: 24 hours recovery; for Tensile strength: T=2H/πDL*9.8
Experimental: An ENERPAC manual tablet press was used for tableting. […] Diameter (D) and thickness (L) were tested with a caliper. Hardness (H) was tested with an intelligent tablet hardness tester. Tensile strength of the powder was calculated with the following formula: T=2H/πDL*9.8. Under a certain force, the greater the tensile strength, the better the compressibility.
Diameter (D) and thickness (L) were tested with a caliper. Hardness (H) was tested with an intelligent tablet hardness tester. Tensile strength of the powder was calculated with the following formula: T=2H/πDL*9.8. Under a certain force, the greater the tensile strength, the better the compressibility.

[6] = Stability of drug substance on storage (XRPD, HPLC purity); settings: for chemical purity during storage: drug substance
Excerpt: Crystalline form and chemical impurity were checked by XRPD and HPLC, respectively.
Crystalline form and purity were checked by XRPD and HPLC, respectively.

[7] = Stability of Form CSV in drug product; settings: for Purity % / Solid Form: drug product
Excerpt: X-ray powder diffraction patterns of drug product stability study in the present disclosure were acquired by a Bruker D8 Discover X-ray powder diffractometer. The parameters of the X-ray powder diffraction method of the present disclosure are as follows:
The XRPD patterns were collected before and after the formulation process.

[8] = Grinding stability (XRPD before and after grinding); settings: manually ground in the mortar for five minutes
Excerpt: A certain amount of Form CSV and WO2016038500 Form 1 were manually ground in the mortar for five minutes.

[9] = Dissolution profile of capsules in pH6.8 PBS; settings: capsule 61 mg, paddle 50 rpm, 37° C.
Experimental: The cumulative dissolution was measured at different time in pH6.8 PBS.

[10] = Dissolution profile of tablets in pH6.8 PBS+3% Tween 80; settings: tablet 61 mg, paddle 75 rpm, 37° C.
Experimental: as §1

[11] = Stability of crystalline form of Compound I in WO2019175263 in drug product formulation process; settings: formulation of Table 34, stirring at room temperature
Excerpt: The crystalline form of Compound I in WO2019175263 was made into drug products according to the formulation and preparation process in Table 34 and Table 35. The XRPD patterns were collected before and after the formulation process. […] Form change occurred during stirring at room temperature.

[12] = 40° C./75% RH, Sealed, 3 months
[13] = 60° C./75% RH, Sealed, 2 months
[14] = 40° C./75% RH and 60° C./75% RH
[15] = double aluminum blister, 25° C./60% RH, 3 months
[16] = double aluminum blister, 40° C./75% RH, 3 months
[17] = 40° C./75% RH, Sealed, 6 months

O=C(O)CCCCC(=O)O.O=C(O)c1ccc2nc(-c3cc(Cl)cc(Cl)c3)oc2c1.O=C(O)c1ccc2nc(-c3cc(Cl)cc(Cl)c3)oc2c1 [Form CSVII]
Cumulative drug release in pH 6.8 PBS + 1% Tween 80 (%) ([1]; 0 min): 0.0%
Cumulative drug release in pH 6.8 PBS + 1% Tween 80 (%) ([1]; 5 min): 9.3%
Cumulative drug release in pH 6.8 PBS + 1% Tween 80 (%) ([1]; 10 min): 15.2%
Cumulative drug release in pH 6.8 PBS + 1% Tween 80 (%) ([1]; 15 min): 19.7%
Cumulative drug release in pH 6.8 PBS + 1% Tween 80 (%) ([1]; 20 min): 23.5%
Cumulative drug release in pH 6.8 PBS + 1% Tween 80 (%) ([1]; 30 min): 29.8%
Cumulative drug release in pH 6.8 PBS + 1% Tween 80 (%) ([1]; 45 min): 37.4%
Cumulative drug release in pH 6.8 PBS + 1% Tween 80 (%) ([1]; 60 min): 43.7%
Cumulative drug release in pH 6.8 PBS + 1% Tween 80 (%) ([1]; 90 min): 52.8%
Cumulative drug release in pH 6.8 PBS + 1% Tween 80 (%) ([1]; 120 min): 60.1%
Cumulative drug release in pH 6.8 PBS + 1% Tween 80 (%) ([1]; 150 min): 68.3%
Weight gain [2]: 0.04%
time for which crystalline state of drug product doesn't change [3]: at least three months
Average amount (mg) of material sticking to the punch [4]: 0.200 mg
Hardness [5]: 7.45 kgf
Tensile strength [5]: 4.02 MPa
Purity ([6]; 25° C./60% RH, Open, 3 months): 99.92%
Solid Form ([6]; 25° C./60% RH, Open, 3 months): Form CSVII
Purity ([6]; 40° C./75% RH, Open, 3 months): 99.92%
Solid Form ([6]; 40° C./75% RH, Open, 3 months): Form CSVII
Purity [6, 12]: 99.92%
Solid Form [6, 12]: Form CSVII
Purity [6, 13]: 99.93%
Solid Form [6, 13]: Form CSVII
Purity ([6]; Initial): 99.93%
Solid Form ([6]; Initial): Form CSVII
chemical purity during storage ([6]; 25° C./60% RH): above 99.9%
chemical purity during storage [6, 14]: above 99.9%

O=C(O)/C=C/C(=O)O.O=C(O)c1ccc2nc(-c3cc(Cl)cc(Cl)c3)oc2c1.O=C(O)c1ccc2nc(-c3cc(Cl)cc(Cl)c3)oc2c1 [Form CSV]
Weight gain [2]: 0.09%
hygroscopicity ([2]; pharmacopoeia definition): non hygroscopic or almost non-hygroscopic; also recorded: non-hygroscopic or almost non-hygroscopic
Purity % ([7]; Initial): 99.84%
Solid Form ([7]; Initial): Form CSV
Purity % [7, 15]: 99.87%
Solid Form [7, 15]: Form CSV
Purity % [7, 16]: 99.86%
Solid Form [7, 16]: Form CSV
stability in the formulation process (XRPD before and after) ([7]; formulation of Table 10, process of Table 11): stable in the formulation process
crystallinity after grinding [8]: keeps substantially unchanged
Hardness [5]: 4.85 kgf
Tensile strength [5]: 2.86 MPa
Cumulative drug release (%) ([9]; 0 min): 0.0%
Cumulative drug release (%) ([9]; 5 min): 6.6%
Cumulative drug release (%) ([9]; 10 min): 67.6%
Cumulative drug release (%) ([9]; 15 min): 82.8%
Cumulative drug release (%) ([9]; 20 min): 88.4%
Cumulative drug release (%) ([9]; 30 min): 89.1%
Cumulative drug release (%) ([9]; 45 min): 87.4%
Cumulative drug release (%) ([9]; 60 min): 86.4%
Purity ([6]; 25° C./60% RH, Open, 6 months): 99.96%
Solid Form ([6]; 25° C./60% RH, Open, 6 months): Form CSV
Purity ([6]; 40° C./75% RH, Open, 6 months): 99.96%
Solid Form ([6]; 40° C./75% RH, Open, 6 months): Form CSV
Purity [6, 17]: 99.96%
Solid Form [6, 17]: Form CSV
Purity ([6]; 60° C./75% RH, Open, 2 months): 99.94%
Solid Form ([6]; 60° C./75% RH, Open, 2 months): Form CSV
Purity [6, 13]: 99.94%
Solid Form [6, 13]: Form CSV
Purity ([6]; Initial): 99.96%
Solid Form ([6]; Initial): Form CSV
chemical purity during storage ([6]; 25° C./60% RH): above 99.9%
chemical purity during storage [6, 14]: above 99.9%

O=C(O)c1ccc2nc(-c3cc(Cl)cc(Cl)c3)oc2c1 [WO2016038500 Form 1, reference compound]
Cumulative drug release in pH 6.8 PBS + 1% Tween 80 (%) ([1]; 0 min): 0.0%
Cumulative drug release in pH 6.8 PBS + 1% Tween 80 (%) ([1]; 5 min): 4.0%
Cumulative drug release in pH 6.8 PBS + 1% Tween 80 (%) ([1]; 10 min): 10.4%
Cumulative drug release in pH 6.8 PBS + 1% Tween 80 (%) ([1]; 15 min): 15.6%
Cumulative drug release in pH 6.8 PBS + 1% Tween 80 (%) ([1]; 20 min): 19.5%
Cumulative drug release in pH 6.8 PBS + 1% Tween 80 (%) ([1]; 30 min): 25.7%
Cumulative drug release in pH 6.8 PBS + 1% Tween 80 (%) ([1]; 45 min): 33.0%
Cumulative drug release in pH 6.8 PBS + 1% Tween 80 (%) ([1]; 60 min): 38.4%
Cumulative drug release in pH 6.8 PBS + 1% Tween 80 (%) ([1]; 90 min): 46.8%
Cumulative drug release in pH 6.8 PBS + 1% Tween 80 (%) ([1]; 120 min): 53.3%
Cumulative drug release in pH 6.8 PBS + 1% Tween 80 (%) ([1]; 150 min): 61.4%
Cumulative drug release in pH 6.8 PBS + 3% Tween 80 (%) ([10]; 0 min): 0.0%
Cumulative drug release in pH 6.8 PBS + 3% Tween 80 (%) ([10]; 5 min): 22.7%
Cumulative drug release in pH 6.8 PBS + 3% Tween 80 (%) ([10]; 10 min): 33.1%
Cumulative drug release in pH 6.8 PBS + 3% Tween 80 (%) ([10]; 15 min): 39.7%
Cumulative drug release in pH 6.8 PBS + 3% Tween 80 (%) ([10]; 20 min): 45.0%
Cumulative drug release in pH 6.8 PBS + 3% Tween 80 (%) ([10]; 30 min): 52.5%
Cumulative drug release in pH 6.8 PBS + 3% Tween 80 (%) ([10]; 45 min): 60.5%
Cumulative drug release in pH 6.8 PBS + 3% Tween 80 (%) ([10]; 60 min): 65.9%
Cumulative drug release in pH 6.8 PBS + 3% Tween 80 (%) ([10]; 90 min): 73.0%
Cumulative drug release in pH 6.8 PBS + 3% Tween 80 (%) ([10]; 120 min): 77.2%
Average amount (mg) of material sticking to the punch [4]: 0.265 mg
crystallinity after grinding [8]: decreases
Hardness [5]: 2.32 kgf
Tensile strength [5]: 1.78 MPa
Cumulative drug release (%) ([9]; 0 min): 0.0%
Cumulative drug release (%) ([9]; 5 min): 14.0%
Cumulative drug release (%) ([9]; 10 min): 27.3%
Cumulative drug release (%) ([9]; 15 min): 29.1%
Cumulative drug release (%) ([9]; 20 min): 28.1%
Cumulative drug release (%) ([9]; 30 min): 27.6%
Cumulative drug release (%) ([9]; 45 min): 26.8%
Cumulative drug release (%) ([9]; 60 min): 21.8%

O=C(O)c1ccc2nc(-c3cc(Cl)cc(Cl)c3)oc2c1
stability in the formulation process (XRPD before and after) [11]: unstable in the formulation process
